Columns and labels:
[1] = Selectivity index, Ratio of IC50 for L6 cells to IC50 for Trypanosoma brucei rhodesiense STIB 9; format: functional
L6 = experiment: Cytotoxicity against rat L6 cells after 72 hrs by microplate alamar blue assay; format: cell-based; details: L6, 72 h
[2] = test system: Trypanosoma brucei rhodesiense; experiment: Antitrypanosomal activity against Trypanosoma brucei rhodesiense STIB 900 after 72 hrs by microplate alamar blue assay; format: functional, organism-based; details: STIB 900, 72 h
Plasmodium falciparum = experiment: Antiplasmodial activity against chloroquine and pyrimethamine-resistant Plasmodium falciparum K1 after 48 hrs; format: functional, organism-based; details: K1, 48 h
[3] = Selectivity index, Ratio of IC50 for L6 cells to IC50 for Plasmodium falciparum K1; format: functional

For `NC(=O)CN1CCC2(N3CCCCC3)CC(c3ccc(Cl)cc3)C1C(c1ccc(Cl)cc1)C2` (racemic), the “Ratio IC50” value [1] was 24, the IC50 (L6) was 23800 nM and the IC50 [2] was 990 nM. The IC50 (Plasmodium falciparum) was 1570 nM and the “Ratio IC50” value [3] was 15.13.

In the case of `COc1ccc(C2CC3(N(C)C)CCNC2C(c2ccc(OC)cc2)C3)cc1` (racemic), the “Ratio IC50” value [1] is reported as 174.7, the IC50 (L6) is reported as 117000 nM and the IC50 [2] is reported as 670 nM. For the same compound, the IC50 (Plasmodium falciparum) was 2690 nM and the “Ratio IC50” value [3] was 43.52.

For `CN(C)C12CCNC(C(c3ccc(Br)cc3)C1)C(c1ccc(Br)cc1)C2` (racemic), the “Ratio IC50” value [1] was 103.9, the IC50 (L6) was 9030 nM and the IC50 [2] was 87 nM. For the same compound, the IC50 (Plasmodium falciparum) was 340 nM and the “Ratio IC50” value [3] was 26.56.

For `CN(C)C12CCNC([C@H](c3ccccc3)C1)[C@H](c1ccccc1)C2`, the IC50 [2] was 600 nM.

For `CN(C)C12CCNC(C(c3ccc(Cl)c(Cl)c3)C1)C(c1ccc(Cl)c(Cl)c1)C2` (racemic), the “Ratio IC50” value [1] was 71.56, the IC50 (L6) was 6440 nM and the IC50 [2] was 90 nM. For the same compound, the IC50 (Plasmodium falciparum) was 400 nM and the “Ratio IC50” value [3] was 16.1.

For `CCOC(=O)CN1CCC2(N3CCCCC3)CC(c3ccc(Cl)cc3)C1C(c1ccc(Cl)cc1)C2` (racemic), the “Ratio IC50” value [1] was 5.97, the IC50 (L6) was 13100 nM and the IC50 [2] was 2190 nM. The IC50 (Plasmodium falciparum) was 1010 nM and the “Ratio IC50” value [3] was 12.94.

For `NCCN1CCC2(N3CCCC3)CC(c3ccc(Cl)cc3)C1C(c1ccc(Cl)cc1)C2` (racemic), the “Ratio IC50” value [1] was 22.14, the IC50 (L6) was 4650 nM and the IC50 [2] was 210 nM. For the same compound, the IC50 (Plasmodium falciparum) was 320 nM and the “Ratio IC50” value [3] was 14.53.

`C[C@@H]1CC[C@H]2[C@@H](C)C(=O)O[C@@H]3O[C@@]4(C)CC[C@@H]1[C@]32OO4` [ARTEMISININ] gave an IC50 (Plasmodium falciparum) of 6.4 nM.

With `NC(=O)CN1CCC2(N3CCCC3)CC(c3ccc(Cl)cc3)C1C(c1ccc(Cl)cc1)C2` (racemic) the “Ratio IC50” value [1] was 31.45, the IC50 (L6) was 23900 nM and the IC50 [2] was 760 nM. For the same compound, the IC50 (Plasmodium falciparum) was 830 nM and the “Ratio IC50” value [3] was 28.8.

In the case of `OCCN1CCC2(N3CCCCC3)CC(c3ccc(Cl)cc3)C1C(c1ccc(Cl)cc1)C2` (racemic), the “Ratio IC50” value [1] is reported as 14.46, the IC50 (L6) is reported as 9690 nM and the IC50 [2] is reported as 670 nM. For the same compound, the IC50 (Plasmodium falciparum) was 700 nM and the “Ratio IC50” value [3] was 13.84.

For `CCOC(=O)CN1CCC2(N(C)C)CC(c3ccc(Cl)cc3)C1C(c1ccc(Cl)cc1)C2` (racemic), the “Ratio IC50” value [1] was 2.88, the IC50 (L6) was 5120 nM and the IC50 [2] was 1780 nM. The IC50 (Plasmodium falciparum) was 700 nM and the “Ratio IC50” value [3] was 7.31.

In the case of `CN(C)C12CCN(CC(N)=O)C(C(c3ccc(Cl)cc3)C1)C(c1ccc(Cl)cc1)C2` (racemic), the “Ratio IC50” value [1] is reported as 28.07, the IC50 (L6) is reported as 25500 nM and the IC50 [2] is reported as 910 nM. For the same compound, the IC50 (Plasmodium falciparum) was 1110 nM and the “Ratio IC50” value [3] was 23.01.

With `CN(C)C12CCNC(C(c3ccc(C(F)(F)F)cc3)C1)C(c1ccc(C(F)(F)F)cc1)C2` (racemic) the “Ratio IC50” value [1] was 118, the IC50 (L6) was 9440 nM and the IC50 [2] was 80 nM. The IC50 (Plasmodium falciparum) was 850 nM and the “Ratio IC50” value [3] was 11.11.

For `CN(C)C12CCN(CCN)C(C(c3ccc(Cl)cc3)C1)C(c1ccc(Cl)cc1)C2` (racemic), the “Ratio IC50” value [1] was 20.44, the IC50 (L6) was 10200 nM and the IC50 [2] was 500 nM. The IC50 (Plasmodium falciparum) was 900 nM and the “Ratio IC50” value [3] was 11.36.

With `CN(C)C12CCNC(C(c3cccc4ccccc34)C1)C(c1cccc3ccccc13)C2` (racemic) the “Ratio IC50” value [1] was 58.82, the IC50 (L6) was 6470 nM and the IC50 [2] was 110 nM. For the same compound, the IC50 (Plasmodium falciparum) was 480 nM and the “Ratio IC50” value [3] was 13.48.

For `NCCN1CCC2(N3CCCCC3)CC(c3ccc(Cl)cc3)C1C(c1ccc(Cl)cc1)C2` (racemic), the “Ratio IC50” value [1] was 44.34, the IC50 (L6) was 3370 nM and the IC50 [2] was 76 nM. The IC50 (Plasmodium falciparum) was 150 nM and the “Ratio IC50” value [3] was 22.47.

With `CN(C)C12CCNC(C(c3ccc(F)cc3)C1)C(c1ccc(F)cc1)C2` (racemic) the “Ratio IC50” value [1] was 422.7, the IC50 (L6) was 186000 nM and the IC50 [2] was 440 nM. The IC50 (Plasmodium falciparum) was 890 nM and the “Ratio IC50” value [3] was 209.

In the case of `Clc1ccc(C2CC3(N4CCCCC4)CCNC2C(c2ccc(Cl)c(Cl)c2)C3)cc1Cl` (racemic), the “Ratio IC50” value [1] is reported as 55.44, the IC50 (L6) is reported as 8870 nM and the IC50 [2] is reported as 160 nM. The IC50 (Plasmodium falciparum) was 540 nM and the “Ratio IC50” value [3] was 16.43.

In the case of `Clc1ccc(C2CC3(N4CCCC4)CCNC2C(c2ccc(Cl)c(Cl)c2)C3)cc1Cl` (racemic), the “Ratio IC50” value [1] is reported as 45.8, the IC50 (L6) is reported as 6870 nM and the IC50 [2] is reported as 150 nM. For the same compound, the IC50 (Plasmodium falciparum) was 280 nM and the “Ratio IC50” value [3] was 24.54.

With `Cc1ccc(C2CC3(N(C)C)CCNC2C(c2ccc(C)cc2)C3)cc1` (racemic) the “Ratio IC50” value [1] was 337.2, the IC50 (L6) was 40500 nM and the IC50 [2] was 120 nM. For the same compound, the IC50 (Plasmodium falciparum) was 450 nM and the “Ratio IC50” value [3] was 89.91.
